“Also recorded” adds a separate entry of the source. Like-named read-outs stand apart in the source and are kept apart here.
Legend:
[1] = test system: 24-hydroxylase (24-OHase) gene promoter in ROS 17/2.8 (bone) cells; assay: In vitro transcription assay (24-hydroxylase promoter luciferase reporter); assay type: cell-based
Method: Transcription activity was measured in ROS 17/2.8 (bone) cells that were stably transfected with a 24-hydroxylase (24-Ohase) gene promoter upstream of a luciferase reporter gene (Arbour et al., Analytical Biochem. (1998) 255(1):148-154). Cells were given a range of doses. Sixteen hours after dosing the cells were harvested and luciferase activities were measured using a luminometer. RLU=relative luciferase units.

HL-60 cells = assay: HL-60 differentiation (nitro blue tetrazolium reduction); assay type: cell-based, human
Method: The study drugs were dissolved in ethanol and the concentrations determined using UV spectrophotometry. Serial dilutions were prepared so that a range of drug concentrations could be tested without changing the final concentration of ethanol (≦0.2%) present in the cell cultures.
Human promyelocytic leukemia (HL60) cells were grown in RPMI-1640 medium containing 10% fetal bovine serum. The cells were incubated at 37° C. in the presence of 5% CO2.
HL60 cells were plated at 1.2×10^5 cells/mL. Eighteen hours after plating, cells in duplicate were treated with drug. Four days later, the cells were harvested and a nitro blue tetrazolium reduction assay was performed (Collins et al., J. Exp. Med. (1979) 149:969-974). The percentage of differentiated cells was determined by counting a total of 200 cells and recording the number that contained intracellular black-blue formazan deposits.

[2] = test system: bone calcium mobilization; assay: Bone calcium mobilization (serum calcium); assay type: in vivo, rat; details: at 780 pM dosage
Method: (§1) Male, weanling Sprague-Dawley rats were placed on Diet 11 (0.47% Ca) diet+AEK oil for one week followed by Diet 11 (0.02% Ca)+AEK oil for 3 weeks. The rats were then switched to a diet containing 0.47% Ca for one week followed by two weeks on a diet containing 0.02% Ca. Dose administration began during the last week on 0.02% calcium diet. Four consecutive intraperitoneal doses were given approximately 24 hours apart. Twenty-four hours after the last dose, blood was collected from the severed neck and the concentration of serum calcium determined as a measure of bone calcium mobilization. The first 10 cm of the intestine was also collected for intestinal calcium transport analysis using the everted gut sac method.

[3] = test system: intestinal calcium transport; assay: Intestinal calcium transport (everted gut sac); assay type: in vivo, rat; details: for Net Intestinal Ca2+ Transport (S/M): S/M = serosal Ca2+/mucosal Ca2+, at 780 pM dosage; for intestinal calcium transport activity compared with 1,25(OH)2D3: rat gut, in words
Method: as §1

[4] = target: T1, full-length recombinant rat vitamin D receptor (Rattus norvegicus, UniProt P13053); assay: Competitive vitamin D receptor binding; details: for binding to the nuclear vitamin D receptor compared with 1,25(OH)2D3: in words
T1 construct: Full-length recombinant rat receptor was expressed in E. coli BL21(DE3) Codon Plus RIL cells; histidine tag (C); made in house; host or cells: E. coli BL21(DE3) Codon Plus RIL
T1 sequence (P13053 1-423): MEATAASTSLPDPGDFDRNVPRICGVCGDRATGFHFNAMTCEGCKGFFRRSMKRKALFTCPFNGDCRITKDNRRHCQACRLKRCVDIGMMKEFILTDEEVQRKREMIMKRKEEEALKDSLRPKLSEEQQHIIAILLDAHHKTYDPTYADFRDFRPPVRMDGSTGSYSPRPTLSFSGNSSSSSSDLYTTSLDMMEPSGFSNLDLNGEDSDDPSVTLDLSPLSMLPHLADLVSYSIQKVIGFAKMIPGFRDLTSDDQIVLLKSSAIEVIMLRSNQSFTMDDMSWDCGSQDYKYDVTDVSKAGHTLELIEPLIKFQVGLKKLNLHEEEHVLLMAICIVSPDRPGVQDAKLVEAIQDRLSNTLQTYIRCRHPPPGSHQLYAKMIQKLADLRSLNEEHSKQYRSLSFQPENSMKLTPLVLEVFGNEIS
Method: The first system was a nickel affinity resin that utilizes the C-terminal histidine tag on this protein. The protein that was eluted from this resin was further purified using ion exchange chromatography (S-Sepharose Fast Flow). Aliquots of the purified protein were quick frozen in liquid nitrogen and stored at −80° C. until use. For use in binding assays, the protein was diluted in TEDK50 (50 mM Tris, 1.5 mM EDTA, pH 7.4, 5 mM DTT, 150 mM KCl) with 0.1% Chaps detergent. The receptor protein and ligand concentration was optimized such that no more than 20% of the added radiolabeled ligand was bound to the receptor.
Radiolabeled and unlabeled ligands were added to 100 μL of the diluted protein at a final ethanol concentration of ≦10%, mixed and incubated overnight on ice to reach binding equilibrium. The following day, 100 μL of hydroxylapatite slurry (50%) was added to each tube and mixed at 10-minute intervals for 30 minutes. The hydroxylapaptite was collected by centrifugation and then washed three times with Tris-EDTA buffer (50 mM Tris, 1.5 mM EDTA, pH 7.4) containing 0.5% Titron X-100. After the final wash, the pellets were transferred to scintillation vials containing 4 mL of Biosafe II scintillation cocktail, mixed and placed in a scintillation counter. Total binding was determined from the tubes containing only radiolabeled ligand.

[5] = target: T1, full-length recombinant rat vitamin D receptor; details: data from U.S. Pat. No. 5,843,928 and J. Med. Chem. 1998, 41, 4662; read-out: Competitive VDR Binding (Ki); cited from earlier work
[6] = competition with 3H-1,25(OH)2D3, read-out: Ki, binding to the recombinant vitamin D receptor

Ki [4, 6] [nM] | Compound | Net Bone Ca2+ Mobilization [2] [mg/dL] | Net Intestinal Ca2+ Transport (S/M) [3] [S/M] | intestinal calcium transport activity compared with 1,25(OH)2D3 [3] | binding to the nuclear vitamin D receptor compared with 1,25(OH)2D3 [4] | Ki [5] [nM] | other results
0.05 | C=C1C(O)CC(=CC=C2CCCC3(C)C2CCC3C(C)C(C)(C)CCC(C)(C)O)CC1O [MET-2, (20R)-2-methylene-19-nor-22-dimethyl-1α,25-dihydroxyvitamin D3] | 0.2 | 1.2 | noticeably less active than 1,25-(OH)2D3; also recorded: less potent than 1,25(OH)2D3 | equally effective as 1,25-(OH)2D3; also recorded: same affinity as 1,25(OH)2D3 | – | EC50 ([1]; ROS 17/2.8 cells, 16 hours, read-out: concentration stimulating 24-OHase gene expression in bone cells): 0.03 nM; EC50 ([1]; present compounds, read-out: 24-OHase Transcription (EC50)): 0.6 nM; potency in 24-hydroxylase gene transcription, times more potent than 1,25(OH)2D3 ([1]; relative to 1,25(OH)2D3): about three; potency in stimulating 24-OHase gene expression, times less potent than 1,25(OH)2D3 ([1]; relative to 1,25(OH)2D3): about 3 times; EC50 (HL-60 cells; HL-60 cells, 4 days, read-out: concentration inducing the differentiation of HL-60 cells in culture): 0.7 nM; EC50 (HL-60 cells; Homo sapiens, HL-60, present compounds, read-out: HL-60 Differentiation (EC50)): 1 nM; Ki ([4]; present compounds, read-out: Competitive VDR Binding (Ki)): 0.05 nM; melting point: 154 °C
0.04 | C=C1C(O)CC(=CC=C2CCCC3(C)C2CCC3C(C)C(C)(C)CCC(C)(C)O)CC1O [MET-1, (20S)-2-methylene-19-nor-22-dimethyl-1α,25-dihydroxyvitamin D3] | 0.4 | 2.3 | noticeably less active than 1,25-(OH)2D3; also recorded: less potent than 1,25(OH)2D3 | approximately equally effective as 1,25-(OH)2D3; also recorded: same affinity as 1,25(OH)2D3 | – | EC50 ([1]; 16 h, ROS 17/2.8 cells, 16 hours, read-out: concentration stimulating 24-OHase gene expression in bone cells): 0.03 nM; EC50 (HL-60 cells; Homo sapiens, HL-60, 96 h, HL-60 cells, 4 days, read-out: concentration inducing the differentiation of HL-60 cells in culture): 0.7 nM; EC50 (HL-60 cells; present compounds, read-out: HL-60 Differentiation (EC50)): 0.7 nM
– | C=C1C(O)CC(=CC=C2CCCC3(C)C2CCC3C(C)CCCC(C)(C)O)CC1O [2MD (20R)] | – | – | – | – | 0.12 | –
– | C=C1C(O)CC(=CC=C2CCCC3(C)C2CCC3C(C)CCCC(C)(C)O)CC1O [2MD (20S), 2-methylene-19-nor-1α,25-dihydroxyvitamin D3] | – | – | – | – | 0.1 | –
